Data reported in ChEMBL document CHEMBL1201862, “PubChem BioAssay data set” (2004).
One block for each compound: values may come before it. The source made the active and inactive calls.

Legend:
cells = format: functional, cell-based
Bcl-2-like protein 10 = target: T1, Bcl-2-like protein 10 (Homo sapiens, UniProt Q9HD36); test: displacers of TR3 peptide from Bcl-B, primary screen, selectivity assay for Bfl-1 inhibitor project, biochemical, fluorescence polarization, FITC-TR3 peptide (AID 748);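 note: fluorescence polarization from a fluorescein-labelled TR3 peptide binding purified Bcl-B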
T1 sequence (Q9HD36 whole entry): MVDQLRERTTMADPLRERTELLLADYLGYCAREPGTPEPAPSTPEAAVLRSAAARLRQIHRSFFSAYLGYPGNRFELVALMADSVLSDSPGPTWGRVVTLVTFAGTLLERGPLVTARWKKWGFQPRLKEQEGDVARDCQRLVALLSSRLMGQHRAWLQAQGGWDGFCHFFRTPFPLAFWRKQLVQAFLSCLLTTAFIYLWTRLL

Hexokinase HKDC1 = Hexokinase HKDC1 (Homo sapiens, UniProt Q2TB90); test: HKDC1 hexokinase inhibitors, dose response, biochemical, W721R variant (AID 504729); format: functional
[1] = target: Platelet-derived growth factor receptor beta (Homo sapiens, UniProt P09619); format: functional;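 note: value comes from a kinome panel, with PDGFRB tested as one panel member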
[2] = target: Serine/threonine-protein kinase Chk1 (Homo sapiens, UniProt O14757); format: functional;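 note: measured as one member of a kinome-wide kinase profiling panel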
Insulin-degrading enzyme = target: T2, Insulin-degrading enzyme (Homo sapiens, UniProt P14735); test: activators of recombinant IDE enzyme, dose response, counter-screen for IDE activator project, biochemical, fluorescence polarization (AID 588681)
T2 sequence (P14735 whole entry): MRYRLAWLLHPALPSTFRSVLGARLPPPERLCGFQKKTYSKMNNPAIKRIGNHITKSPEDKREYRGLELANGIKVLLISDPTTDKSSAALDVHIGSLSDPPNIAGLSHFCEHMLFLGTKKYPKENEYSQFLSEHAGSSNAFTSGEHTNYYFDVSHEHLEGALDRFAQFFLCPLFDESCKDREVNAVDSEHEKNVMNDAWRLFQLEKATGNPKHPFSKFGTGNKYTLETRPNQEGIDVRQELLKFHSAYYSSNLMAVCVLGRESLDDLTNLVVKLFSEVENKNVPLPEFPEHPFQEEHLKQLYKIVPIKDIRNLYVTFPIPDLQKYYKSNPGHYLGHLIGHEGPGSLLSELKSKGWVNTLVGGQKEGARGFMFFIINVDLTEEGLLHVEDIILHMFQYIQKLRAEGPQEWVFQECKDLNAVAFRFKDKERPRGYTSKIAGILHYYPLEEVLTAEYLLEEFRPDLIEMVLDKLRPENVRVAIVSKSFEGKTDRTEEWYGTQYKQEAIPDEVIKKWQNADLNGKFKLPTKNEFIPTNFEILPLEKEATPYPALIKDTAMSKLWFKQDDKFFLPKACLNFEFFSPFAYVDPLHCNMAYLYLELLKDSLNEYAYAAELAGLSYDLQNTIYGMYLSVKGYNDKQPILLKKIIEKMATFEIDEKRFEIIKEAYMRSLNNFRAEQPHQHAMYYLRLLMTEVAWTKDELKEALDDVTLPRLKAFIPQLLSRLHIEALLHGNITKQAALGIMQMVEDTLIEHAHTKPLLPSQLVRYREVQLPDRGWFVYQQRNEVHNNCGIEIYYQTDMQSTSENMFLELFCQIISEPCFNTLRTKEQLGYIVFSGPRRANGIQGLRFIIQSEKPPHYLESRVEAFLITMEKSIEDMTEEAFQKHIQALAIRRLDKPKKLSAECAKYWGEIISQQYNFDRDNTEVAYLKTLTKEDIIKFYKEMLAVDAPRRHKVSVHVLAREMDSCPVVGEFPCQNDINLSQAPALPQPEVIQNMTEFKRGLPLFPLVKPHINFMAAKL

[3] = miR-122 activators in hepatoma reporter cells, dose response, cell-based, Huh7 psiCHECK-miR122, Renilla luciferase, cherry-picked (AID 651956); format: functional;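 note: huh7 hepatoma cells stably carrying a psiCHECK-2 miR-122 sensor plasmid; renilla luciferase signal reporting endogenous miR-122 activity after 48 h compound exposure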
[4] = target: Mast/stem cell growth factor receptor Kit (Homo sapiens, UniProt P10721); format: functional;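 note: KIT entry within a kinase panel assay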
Caspase-3 = target: T3, Caspase-3 (Homo sapiens, UniProt P42574); format: functional;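 note: Dose-response selectivity test against caspase-3 for candidate inhibitors of sentrin-specific proteases (SENPs)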
T3 sequence (P42574 whole entry): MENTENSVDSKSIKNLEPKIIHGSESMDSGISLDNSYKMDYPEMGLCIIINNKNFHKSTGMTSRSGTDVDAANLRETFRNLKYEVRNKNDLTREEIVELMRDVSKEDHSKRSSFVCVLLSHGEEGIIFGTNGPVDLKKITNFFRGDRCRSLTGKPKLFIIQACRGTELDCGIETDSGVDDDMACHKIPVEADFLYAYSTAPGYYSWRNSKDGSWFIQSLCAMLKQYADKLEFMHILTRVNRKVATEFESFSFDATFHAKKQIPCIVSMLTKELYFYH

[5] = target: T4, Sentrin-specific protease 7 (Homo sapiens, UniProt Q9BQF6); format: functional;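 note: Luminescence-based dose-response confirmation of ultra-high-throughput screening hits, measuring inhibition of SENP7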
T4 sequence (Q9BQF6 whole entry): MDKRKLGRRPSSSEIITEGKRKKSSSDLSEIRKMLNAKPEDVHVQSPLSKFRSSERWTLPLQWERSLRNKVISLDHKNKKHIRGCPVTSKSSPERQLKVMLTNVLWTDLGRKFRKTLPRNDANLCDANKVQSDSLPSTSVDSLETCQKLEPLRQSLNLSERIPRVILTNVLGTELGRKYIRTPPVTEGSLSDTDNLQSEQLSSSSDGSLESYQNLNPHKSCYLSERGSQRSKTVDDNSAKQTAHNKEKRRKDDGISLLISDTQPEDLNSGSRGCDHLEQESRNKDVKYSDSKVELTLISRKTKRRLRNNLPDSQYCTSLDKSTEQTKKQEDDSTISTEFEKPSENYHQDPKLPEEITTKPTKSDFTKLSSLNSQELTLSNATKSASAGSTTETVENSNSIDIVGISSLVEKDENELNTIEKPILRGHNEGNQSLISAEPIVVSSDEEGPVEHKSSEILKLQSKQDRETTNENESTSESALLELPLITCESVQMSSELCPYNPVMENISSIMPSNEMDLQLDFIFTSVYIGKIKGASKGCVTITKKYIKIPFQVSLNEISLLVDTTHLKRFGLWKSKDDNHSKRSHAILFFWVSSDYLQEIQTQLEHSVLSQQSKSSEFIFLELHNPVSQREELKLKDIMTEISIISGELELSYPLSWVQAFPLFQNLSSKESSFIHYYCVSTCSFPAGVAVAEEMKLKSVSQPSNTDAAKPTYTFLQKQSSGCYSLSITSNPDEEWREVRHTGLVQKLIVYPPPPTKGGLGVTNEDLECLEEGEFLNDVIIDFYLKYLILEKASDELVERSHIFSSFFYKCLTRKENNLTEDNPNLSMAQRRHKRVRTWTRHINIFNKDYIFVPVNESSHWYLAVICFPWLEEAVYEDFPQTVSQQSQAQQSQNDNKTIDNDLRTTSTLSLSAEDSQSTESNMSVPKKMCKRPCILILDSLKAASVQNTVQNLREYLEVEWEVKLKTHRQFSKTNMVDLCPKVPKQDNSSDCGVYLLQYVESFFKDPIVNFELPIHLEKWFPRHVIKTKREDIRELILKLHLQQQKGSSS

Serine/threonine-protein kinase Chk1, sequence (O14757 whole entry): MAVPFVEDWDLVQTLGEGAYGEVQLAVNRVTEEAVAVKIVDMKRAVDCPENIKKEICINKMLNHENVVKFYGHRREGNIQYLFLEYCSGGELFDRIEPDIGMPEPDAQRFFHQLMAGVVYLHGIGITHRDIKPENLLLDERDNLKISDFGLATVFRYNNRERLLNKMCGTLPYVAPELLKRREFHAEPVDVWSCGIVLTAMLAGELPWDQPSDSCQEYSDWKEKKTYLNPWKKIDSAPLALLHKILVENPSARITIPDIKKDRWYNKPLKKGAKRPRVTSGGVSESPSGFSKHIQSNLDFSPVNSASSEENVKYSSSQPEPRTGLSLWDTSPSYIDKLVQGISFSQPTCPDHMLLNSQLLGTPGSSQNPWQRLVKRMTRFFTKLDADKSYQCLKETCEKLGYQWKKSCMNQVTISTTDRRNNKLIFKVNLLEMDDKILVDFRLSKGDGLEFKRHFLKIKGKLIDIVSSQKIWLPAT
Hexokinase HKDC1, sequence (Q2TB90 whole entry): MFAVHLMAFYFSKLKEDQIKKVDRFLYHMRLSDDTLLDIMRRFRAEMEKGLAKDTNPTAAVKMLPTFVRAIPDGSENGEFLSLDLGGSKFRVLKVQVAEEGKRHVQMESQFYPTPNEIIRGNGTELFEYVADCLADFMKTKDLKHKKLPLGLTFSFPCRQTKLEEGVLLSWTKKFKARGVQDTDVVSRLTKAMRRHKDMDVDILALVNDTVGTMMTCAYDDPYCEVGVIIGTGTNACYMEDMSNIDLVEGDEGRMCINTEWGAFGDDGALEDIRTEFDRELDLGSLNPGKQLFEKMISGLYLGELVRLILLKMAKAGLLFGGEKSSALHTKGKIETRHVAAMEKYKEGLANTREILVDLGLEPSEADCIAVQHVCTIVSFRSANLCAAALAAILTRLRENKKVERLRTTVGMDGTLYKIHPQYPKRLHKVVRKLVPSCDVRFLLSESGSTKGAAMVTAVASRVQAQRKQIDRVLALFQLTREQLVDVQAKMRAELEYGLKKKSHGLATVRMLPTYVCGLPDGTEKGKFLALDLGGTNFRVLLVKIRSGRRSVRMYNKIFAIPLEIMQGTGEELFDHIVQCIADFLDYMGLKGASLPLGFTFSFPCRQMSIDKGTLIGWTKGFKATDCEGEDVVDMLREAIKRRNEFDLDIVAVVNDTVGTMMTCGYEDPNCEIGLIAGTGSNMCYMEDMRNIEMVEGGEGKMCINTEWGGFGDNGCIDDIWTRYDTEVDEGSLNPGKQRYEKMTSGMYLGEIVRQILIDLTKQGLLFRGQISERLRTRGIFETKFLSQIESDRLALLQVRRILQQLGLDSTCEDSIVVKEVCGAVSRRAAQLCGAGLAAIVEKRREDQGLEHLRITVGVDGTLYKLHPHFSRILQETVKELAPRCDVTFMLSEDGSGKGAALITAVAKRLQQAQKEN
Mast/stem cell growth factor receptor Kit, sequence (P10721 whole entry): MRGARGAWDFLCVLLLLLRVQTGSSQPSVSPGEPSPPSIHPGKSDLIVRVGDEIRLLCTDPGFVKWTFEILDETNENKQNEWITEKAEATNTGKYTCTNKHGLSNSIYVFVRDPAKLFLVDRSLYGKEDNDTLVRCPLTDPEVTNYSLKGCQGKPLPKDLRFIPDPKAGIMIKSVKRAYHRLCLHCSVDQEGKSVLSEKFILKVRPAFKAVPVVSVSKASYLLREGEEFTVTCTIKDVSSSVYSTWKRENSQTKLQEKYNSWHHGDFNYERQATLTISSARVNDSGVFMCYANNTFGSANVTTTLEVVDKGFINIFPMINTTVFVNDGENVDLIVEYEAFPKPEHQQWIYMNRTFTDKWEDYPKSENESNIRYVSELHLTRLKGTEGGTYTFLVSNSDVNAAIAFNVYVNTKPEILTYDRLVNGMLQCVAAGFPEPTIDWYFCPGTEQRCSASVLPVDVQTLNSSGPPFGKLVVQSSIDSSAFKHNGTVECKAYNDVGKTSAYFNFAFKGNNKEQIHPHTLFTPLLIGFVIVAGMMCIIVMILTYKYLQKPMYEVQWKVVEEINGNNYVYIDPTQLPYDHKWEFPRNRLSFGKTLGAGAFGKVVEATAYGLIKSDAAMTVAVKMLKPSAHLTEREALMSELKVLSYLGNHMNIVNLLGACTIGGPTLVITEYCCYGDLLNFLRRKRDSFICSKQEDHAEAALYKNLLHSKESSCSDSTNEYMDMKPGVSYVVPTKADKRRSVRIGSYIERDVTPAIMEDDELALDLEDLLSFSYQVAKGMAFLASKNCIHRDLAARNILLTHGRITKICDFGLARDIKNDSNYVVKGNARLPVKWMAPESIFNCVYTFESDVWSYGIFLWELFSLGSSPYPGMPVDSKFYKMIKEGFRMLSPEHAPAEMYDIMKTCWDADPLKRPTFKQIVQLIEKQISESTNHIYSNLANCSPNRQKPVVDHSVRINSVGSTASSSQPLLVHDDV
Platelet-derived growth factor receptor beta, sequence (P09619 whole entry): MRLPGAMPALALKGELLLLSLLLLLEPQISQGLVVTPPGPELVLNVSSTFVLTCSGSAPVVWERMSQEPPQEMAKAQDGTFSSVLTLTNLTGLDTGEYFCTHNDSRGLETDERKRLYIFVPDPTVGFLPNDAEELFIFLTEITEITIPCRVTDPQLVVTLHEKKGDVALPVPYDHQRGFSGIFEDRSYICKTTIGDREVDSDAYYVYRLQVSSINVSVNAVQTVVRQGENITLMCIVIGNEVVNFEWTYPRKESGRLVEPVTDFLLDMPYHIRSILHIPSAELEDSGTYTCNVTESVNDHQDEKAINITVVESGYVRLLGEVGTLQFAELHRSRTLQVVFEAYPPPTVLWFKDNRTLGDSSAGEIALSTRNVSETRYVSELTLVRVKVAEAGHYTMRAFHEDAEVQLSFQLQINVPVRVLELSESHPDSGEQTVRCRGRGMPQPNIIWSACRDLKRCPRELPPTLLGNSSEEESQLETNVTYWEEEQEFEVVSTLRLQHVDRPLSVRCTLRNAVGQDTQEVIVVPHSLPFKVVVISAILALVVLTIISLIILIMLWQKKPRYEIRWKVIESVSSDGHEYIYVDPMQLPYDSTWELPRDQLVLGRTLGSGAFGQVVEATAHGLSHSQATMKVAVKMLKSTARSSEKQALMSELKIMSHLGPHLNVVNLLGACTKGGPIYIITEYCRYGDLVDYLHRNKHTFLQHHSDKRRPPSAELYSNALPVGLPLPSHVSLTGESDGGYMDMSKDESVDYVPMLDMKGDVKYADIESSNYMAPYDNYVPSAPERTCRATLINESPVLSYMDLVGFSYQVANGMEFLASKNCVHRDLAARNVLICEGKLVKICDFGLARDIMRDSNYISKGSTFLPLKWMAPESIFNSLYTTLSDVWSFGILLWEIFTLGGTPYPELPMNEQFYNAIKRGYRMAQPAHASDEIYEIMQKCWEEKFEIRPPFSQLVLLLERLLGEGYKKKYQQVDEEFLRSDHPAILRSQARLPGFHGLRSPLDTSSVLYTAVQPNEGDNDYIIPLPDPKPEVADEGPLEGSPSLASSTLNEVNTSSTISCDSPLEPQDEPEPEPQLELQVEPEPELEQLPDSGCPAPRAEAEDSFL

SMILES: CC(C)CC(=O)NC(c1cccs1)c1ccc2cccnc2c1O (stereo not given)
EC50 (cells): 6.65 µM (active)

SMILES: CCOC(=O)c1ccc(NC2=CC(=O)C(=O)c3ccccc32)cc1
IC50 (Bcl-2-like protein 10): 60.7 µM (inactive) | IC50 (Hexokinase HKDC1): 43.9 µM (inactive)

SMILES: OC(CNCCC1C=Nc2ccccc21)Cn1c2ccc(Cl)cc2c2cc(Cl)ccc21 (stereo not given)
EC50 (Insulin-degrading enzyme): > 54.7 µM (inactive) | AC50 [3]: 12.8 µM (active)

Continued, values first:

Ki [1]: > 2 µM (inactive) | Ki [2]: > 3.16 µM (inactive)
SMILES: O=C(O)C1CN(Cc2ccc(OCc3ccccc3)cc2Cl)C1

Ki [4]: > 3.98 µM (inactive)
SMILES: NC1CCC(Nc2nc(Cl)cc(-c3c[nH]c4ncccc34)n2)CC1 (stereo not given)

IC50 (Caspase-3): 8.21 µM (active) | IC50 [5]: 1.67 µM (active)
SMILES: COc1ccc(C(=O)c2nccc3cc(OC)c(OC)cc23)cc1OC
